Experimental data from PubChem BioAssay (NCI).
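Step 1: Grow cells in 96-well plates. Step 2: Expose to compound for 48 hours at 5 concentrations. Step 3: Interpolate endpoints linearly; if unreached, use highest concentration. Here, GI50 denotes the concentration required for 50% inhibition of growth. TGI: concentration producing complete growth inhibition.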

Experiments:
Test in all cases: growth of human tumour cells (NCI), 48 h
[1] = tested on: MDA-MB-435
[2] = tested on: HS 578T breast
[3] = tested on: SW-620 colon
[4] = tested on: CAKI-1 renal
[5] = tested on: LOX IMVI melanoma
[6] = tested on: COLO 205 colon
[7] = tested on: SK-MEL-28 melanoma
[8] = tested on: U251 CNS
[9] = tested on: OVCAR-3 ovarian
[10] = tested on: HOP-62 NSCLC

| SMILES | GI50 [1] | TGI [1] | GI50 [2] | TGI [2] | GI50 [3] | TGI [3] | GI50 [4] | TGI [4] | GI50 [5] | TGI [5] | GI50 [6] | TGI [6] | GI50 [7] | TGI [7] | GI50 [8] | TGI [8] | GI50 [9] | TGI [9] | GI50 [10] | TGI [10] |
| --- | --- | --- | --- | --- | --- | --- | --- | --- | --- | --- | --- | --- | --- | --- | --- | --- | --- | --- | --- | --- |
| O=S(=O)(Nc1cc(F)cc(Cl)c1)c1ccc(-c2cnc(C3CC3)o2)cc1 | 0.274 µM | 1.22 µM | 1.02 µM | 17.2 µM | 0.599 µM | 15.5 µM | 0.595 µM | 17.5 µM | 2.5 µM | 20.8 µM | 1.59 µM | 11.8 µM | 10.3 µM | 23.7 µM | 1.55 µM | 15.2 µM | 0.489 µM | 12.2 µM | 1.56 µM | 17.7 µM |
| CC(SC(C)C(=O)N/N=C/c1cccc(Cl)c1)C(=O)N/N=C\c1cccc(Cl)c1 (stereo not given) | 5.02 µM | 23.9 µM | 5.62 µM | 25.4 µM | 2.6 µM | 6.65 µM | 61.4 µM | > 100 µM | 3.03 µM | 10.5 µM | 11.6 µM | 38.9 µM | 15.2 µM | 34.4 µM | 3.74 µM | 15.1 µM | 2.03 µM | 3.81 µM | 13.9 µM | 31.4 µM |
| C=C(F)C(=O)N1CCN(c2nc(OC[C@@H]3CCCN3C)nc3c2CCN(c2cccc4cccc(Cl)c24)C3)C[C@@H]1CC#N | 0.961 µM | 2.22 µM | 1.76 µM | 4.4 µM | 0.992 µM | 2.52 µM | 0.926 µM | 2.44 µM | 1.13 µM | 2.47 µM | 0.578 µM | 1.98 µM | 1.32 µM | 2.72 µM | 1.02 µM | 2.21 µM | 1.15 µM | 3.28 µM | < 0.01 µM | 1.48 µM |
| CCOC(=O)/C=C/C(C(=O)/C=C/c1ccc(OC2CCCCO2)c(OC)c1)=C(O)\C=C\c1ccc(OC2CCCCO2)c(OC)c1 (stereo not given) | 3.23 µM | 13.6 µM | 12.3 µM | 80.5 µM | 3.65 µM | > 100 µM | 4.97 µM | > 100 µM | 1.63 µM | 3.32 µM | 3.1 µM | 11.4 µM | 2.48 µM | 6.74 µM | 3.36 µM | 12.6 µM | 2.58 µM | 8.47 µM | 6.09 µM | 32.5 µM |
| Oc1[nH]c2ccccc2c1N=Nc1ccccc1Cl |  | > 100 µM |  | > 100 µM |  | > 100 µM |  | 61.2 µM |  | > 100 µM |  | > 100 µM |  | > 100 µM |  | 47.4 µM |  | > 93.8 µM |  | 40.6 µM |
| Oc1ccc(Cl)cc1Cc1cc(Cl)cc(Cl)c1O | 4.35 µM | 83.2 µM | 2.61 µM | 8.97 µM | 5.37 µM | 19.9 µM | 7.86 µM | 35.9 µM | 4.83 µM | 19.2 µM | 19.5 µM | 36.6 µM | 4.83 µM | 31.7 µM | 5.12 µM | 50.9 µM | 2.83 µM | 16.5 µM | 3.68 µM | 21 µM |
| C#Cc1cccc(Nc2ncnc3cc(OC)c(OCCCCCCC(=O)NO)cc23)c1 | 0.145 µM | 0.528 µM | 0.086 µM | 1.04 µM | 0.058 µM | 0.319 µM | 0.261 µM | 3.04 µM | 0.195 µM | 1.81 µM | 0.157 µM | 0.538 µM | 0.136 µM | 1.47 µM | 0.151 µM | 4.07 µM | 0.129 µM | 1.64 µM | 0.311 µM | 4.57 µM |
| COC(=O)/C=C/c1cc(O)c2oc(-c3ccc(O)c(O)c3)c(C(=O)OC)c2c1 | 0.0295 µM | 0.108 µM | 0.405 µM | 9.18 µM | 0.124 µM | 14 µM | 1.42 µM | 15 µM | 0.367 µM | 10.3 µM | 8.27 µM | 23.6 µM | 1.92 µM | 11.1 µM | 0.606 µM | 13.4 µM | 0.147 µM | 3.43 µM | 0.442 µM | 12.7 µM |
| CCCCc1c(OC)cc(O)c2c1C(=O)c1[nH]c(C(=O)O)c(O)c(=O)c1C2=O |  | > 100 µM |  | 8.14 µM |  | > 100 µM |  | > 100 µM |  | > 100 µM |  | 64.6 µM |  | > 100 µM |  | 17.6 µM |  | 8.45 µM |  | 9.29 µM |
| COc1ccc(N2C(=O)C(c3ccccc3)(c3ccccc3)C23C(=O)N(C)c2ccccc23)cc1 (stereo not given) | > 100 µM | > 100 µM | > 100 µM | > 100 µM | > 100 µM | > 100 µM | > 100 µM | > 100 µM | > 100 µM | > 100 µM | > 100 µM | > 100 µM | > 100 µM | > 100 µM | > 100 µM | > 100 µM | > 100 µM | > 100 µM | > 100 µM | > 100 µM |
